Test results from PubChem BioAssay AID1963978 (Molecular Pharmacology Branch, DTP, NCI, 2024).

Test system: 616215-338-R-J1-PDC spheroids with HUVEC/MSC, viability
Experiment: Anticancer human tumor 616215-338-R-J1-PDC patient-derived colon adenocarcinoma cell line growth inhibition [PI3K]
Settings: for viability, T/C: stronger effect = lower value
In short: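 Targeted small molecules plus PI3K inhibitors, half-log dose series from Cmax (default top 10 microM), were applied to heterotypic spheroids of cancer cells with HUVEC and MSCs. Viability indicated growth inhibition.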

[1] = curve of first compound, second compound 0.0316 µM
[2] = curve of first compound, second compound 0.1 µM
[3] = curve of first compound, second compound 0.316 µM
[4] = curve of first compound, second compound 1 µM
[5] = curve of first compound, second compound 3.16 µM
[6] = curve of first compound, second compound 10 µM
[7] = second compound 0.0316 µM, first compound 0.0316 µM
[8] = second compound 0.0316 µM, first compound 0.1 µM
[9] = second compound 0.0316 µM, first compound 0.316 µM
[10] = second compound 0.0316 µM, first compound 1 µM
[11] = second compound 0.0316 µM, first compound 3.16 µM
[12] = second compound 0.0316 µM, first compound 10 µM
[13] = second compound 0.1 µM, first compound 0.0316 µM
[14] = second compound 0.1 µM, first compound 0.1 µM
[15] = second compound 0.1 µM, first compound 0.316 µM
[16] = second compound 0.1 µM, first compound 1 µM
[17] = second compound 0.1 µM, first compound 3.16 µM
[18] = second compound 0.1 µM, first compound 10 µM
[19] = second compound 0.316 µM, first compound 0.0316 µM
[20] = second compound 0.316 µM, first compound 0.1 µM
[21] = second compound 0.316 µM, first compound 0.316 µM
[22] = second compound 0.316 µM, first compound 1 µM
[23] = second compound 0.316 µM, first compound 3.16 µM
[24] = second compound 0.316 µM, first compound 10 µM
[25] = second compound 1 µM, first compound 0.0316 µM
[26] = second compound 1 µM, first compound 0.1 µM
[27] = second compound 1 µM, first compound 0.316 µM
[28] = second compound 1 µM, first compound 1 µM
[29] = second compound 1 µM, first compound 3.16 µM
[30] = second compound 1 µM, first compound 10 µM
[31] = second compound 3.16 µM, first compound 0.0316 µM
[32] = second compound 3.16 µM, first compound 0.1 µM
[33] = second compound 3.16 µM, first compound 0.316 µM
[34] = second compound 3.16 µM, first compound 1 µM
[35] = second compound 3.16 µM, first compound 3.16 µM
[36] = second compound 3.16 µM, first compound 10 µM
[37] = second compound 10 µM, first compound 0.0316 µM
[38] = second compound 10 µM, first compound 0.1 µM
[39] = second compound 10 µM, first compound 0.316 µM
[40] = second compound 10 µM, first compound 1 µM
[41] = second compound 10 µM, first compound 3.16 µM
[42] = second compound 10 µM, first compound 10 µM
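Further: spheroids exposed to agents for seven days before the viability read.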

SMILES: C=CC(=O)N1CCN(c2nc(=O)n(-c3c(C)ccnc3C(C)C)c3nc(-c4c(O)cccc4F)c(F)cc23)C(C)C1 (centres undefined) + CC(Nc1ncnc2nc[nH]c12)c1cc2cccc(Cl)c2c(=O)n1-c1ccccc1
- IC50 [1]: > 10 µM
- IC50 [2]: > 10 µM
- IC50 [3]: > 10 µM
- IC50 [4]: > 10 µM
- IC50 [5]: > 10 µM
- IC50 [6]: > 10 µM
- viability, T/C [7]: 89%
- viability, T/C [8]: 92.5%
- viability, T/C [9]: 109%
- viability, T/C [10]: 104%
- viability, T/C [11]: 93.3%
- viability, T/C [12]: 95.8%
- viability, T/C [13]: 100%
- viability, T/C [14]: 99.3%
- viability, T/C [15]: 98%
- viability, T/C [16]: 93.4%
- viability, T/C [17]: 96.8%
- viability, T/C [18]: 89.1%
- viability, T/C [19]: 99.7%
- viability, T/C [20]: 107%
- viability, T/C [21]: 92.8%
- viability, T/C [22]: 96.5%
- viability, T/C [23]: 91.4%
- viability, T/C [24]: 74.7%
- viability, T/C [25]: 101%
- viability, T/C [26]: 99.5%
- viability, T/C [27]: 106%
- viability, T/C [28]: 96.9%
- viability, T/C [29]: 94%
- viability, T/C [30]: 88.5%
- viability, T/C [31]: 101%
- viability, T/C [32]: 104%
- viability, T/C [33]: 98%
- viability, T/C [34]: 105%
- viability, T/C [35]: 85.4%
- viability, T/C [36]: 78.8%
- viability, T/C [37]: 106%
- viability, T/C [38]: 107%
- viability, T/C [39]: 108%
- viability, T/C [40]: 95.5%
- viability, T/C [41]: 99%
- viability, T/C [42]: 82.6%

SMILES: C=CC(=O)N1CCN(c2nc(=O)n(-c3c(C)ccnc3C(C)C)c3nc(-c4c(O)cccc4F)c(F)cc23)C(C)C1 (centres undefined)
- viability, T/C (compound 0.0316 µM): 96.2% [middle of 4 runs]
- viability, T/C (compound 0.1 µM): 92% [middle of 4 runs]
- viability, T/C (compound 0.316 µM): 99% [middle of 4 runs]
- viability, T/C (compound 1 µM): 99.8% [middle of 4 runs]
- viability, T/C (compound 3.16 µM): 93% [middle of 4 runs]
- IC50 (curve of compound): > 10 µM

SMILES: C[C@@H](NC(=O)c1ncnc(N)c1Cl)c1ncc(C(=O)Nc2cc(C(F)(F)F)c(Cl)cn2)s1 + CC(Nc1ccc2c(c1)OCCn1cc(N3C(=O)OCC3C(F)F)nc1-2)C(N)=O
- IC50 (curve of first compound, second compound 0.00316 µM): > 10 µM
- IC50 (curve of first compound, second compound 0.01 µM): > 10 µM
- IC50 [1]: > 10 µM
- IC50 [2]: > 10 µM
- IC50 [3]: > 10 µM
- IC50 [4]: 7.36 µM
- viability, T/C (second compound 0.00316 µM, first compound 0.0316 µM): 103%
- viability, T/C (second compound 0.00316 µM, first compound 0.1 µM): 101%
- viability, T/C (second compound 0.00316 µM, first compound 0.316 µM): 107%
- viability, T/C (second compound 0.00316 µM, first compound 1 µM): 106%
- viability, T/C (second compound 0.00316 µM, first compound 3.16 µM): 96.5%
- viability, T/C (second compound 0.00316 µM, first compound 10 µM): 88.7%
- viability, T/C (second compound 0.01 µM, first compound 0.0316 µM): 102%
- viability, T/C (second compound 0.01 µM, first compound 0.1 µM): 109%
- viability, T/C (second compound 0.01 µM, first compound 0.316 µM): 98.1%
- viability, T/C (second compound 0.01 µM, first compound 1 µM): 104%
- viability, T/C (second compound 0.01 µM, first compound 3.16 µM): 93.3%
- viability, T/C (second compound 0.01 µM, first compound 10 µM): 74.8%
- viability, T/C [7]: 95.5%
- viability, T/C [8]: 104%
- viability, T/C [9]: 101%
- viability, T/C [10]: 103%
- viability, T/C [11]: 115%
- viability, T/C [12]: 66%
- viability, T/C [13]: 100%
- viability, T/C [14]: 104%
- viability, T/C [15]: 115%
- viability, T/C [16]: 102%
- viability, T/C [17]: 99.5%
- viability, T/C [18]: 65.7%
- viability, T/C [19]: 121%
- viability, T/C [20]: 99%
- viability, T/C [21]: 94.8%
- viability, T/C [22]: 98.6%
- viability, T/C [23]: 85.6%
- viability, T/C [24]: 60.6%
- viability, T/C [25]: 101%
- viability, T/C [26]: 95.7%
- viability, T/C [27]: 88.1%
- viability, T/C [28]: 98%
- viability, T/C [29]: 73.7%
- viability, T/C [30]: 41.4%

SMILES: CC(C)NCC(C(=O)N1CCN(c2ncnc3c2C(C)CC3O)CC1)c1ccc(Cl)cc1 (centres undefined) + Cc1nc(NC(=O)N2CCCC2C(N)=O)sc1-c1ccnc(C(C)(C)C(F)(F)F)c1
- IC50 [1]: 8.82 µM
- IC50 [2]: 8.31 µM
- IC50 [3]: 7.19 µM
- IC50 [4]: 7.82 µM
- IC50 [5]: 7.42 µM
- IC50 [6]: 4.35 µM
- viability, T/C [7]: 97.2%
- viability, T/C [8]: 91.6%
- viability, T/C [9]: 91.8%
- viability, T/C [10]: 98.3%
- viability, T/C [11]: 91.8%
- viability, T/C [12]: 44.9%
- viability, T/C [13]: 89.5%
- viability, T/C [14]: 87.4%
- viability, T/C [15]: 92.8%
- viability, T/C [16]: 105%
- viability, T/C [17]: 90.1%
- viability, T/C [18]: 42%
- viability, T/C [19]: 103%
- viability, T/C [20]: 92.9%
- viability, T/C [21]: 98.7%
- viability, T/C [22]: 104%
- viability, T/C [23]: 70.8%
- viability, T/C [24]: 41.6%
- viability, T/C [25]: 98.9%
- viability, T/C [26]: 97.6%
- viability, T/C [27]: 95.6%
- viability, T/C [28]: 101%
- viability, T/C [29]: 84.9%
- viability, T/C [30]: 39.8%
- viability, T/C [31]: 111%
- viability, T/C [32]: 101%
- viability, T/C [33]: 102%
- viability, T/C [34]: 90.4%
- viability, T/C [35]: 71.4%
- viability, T/C [36]: 42.2%
- viability, T/C [37]: 96%
- viability, T/C [38]: 95.3%
- viability, T/C [39]: 91.6%
- viability, T/C [40]: 79.2%
- viability, T/C [41]: 57.8%
- viability, T/C [42]: 30.3%

SMILES: CC(Cn1ccc(-c2ccc(C#N)c(Cl)c2)n1)NC(=O)c1cc(C(C)O)[nH]n1 (centres undefined) + CC(Nc1ncnc2nc[nH]c12)c1cc2cccc(Cl)c2c(=O)n1-c1ccccc1
- IC50 [1]: > 10 µM
- IC50 [2]: > 10 µM
- IC50 [3]: > 10 µM
- IC50 [4]: > 10 µM
- IC50 [5]: > 10 µM
- IC50 [6]: > 10 µM
- viability, T/C [7]: 92%
- viability, T/C [8]: 99.5%
- viability, T/C [9]: 103%
- viability, T/C [10]: 96.1%
- viability, T/C [11]: 116%
- viability, T/C [12]: 99.5%
- viability, T/C [13]: 93.7%
- viability, T/C [14]: 94.6%
- viability, T/C [15]: 102%
- viability, T/C [16]: 92.9%
- viability, T/C [17]: 95.5%
- viability, T/C [18]: 104%
- viability, T/C [19]: 93.1%
- viability, T/C [20]: 102%
- viability, T/C [21]: 89.1%
- viability, T/C [22]: 101%
- viability, T/C [23]: 102%
- viability, T/C [24]: 93.4%
- viability, T/C [25]: 96%
- viability, T/C [26]: 88.3%
- viability, T/C [27]: 110%
- viability, T/C [28]: 93.7%
- viability, T/C [29]: 110%
- viability, T/C [30]: 95.9%
- viability, T/C [31]: 109%
- viability, T/C [32]: 97.1%
- viability, T/C [33]: 107%
- viability, T/C [34]: 104%
- viability, T/C [35]: 94.8%
- viability, T/C [36]: 92.8%
- viability, T/C [37]: 99.4%
- viability, T/C [38]: 106%
- viability, T/C [39]: 101%
- viability, T/C [40]: 97%
- viability, T/C [41]: 118%
- viability, T/C [42]: 95.5%
